Experiment: Time-course of drug levels in adult and embryonic mouse plasma, brain and liver after a single subcutaneous injection (LC-MS/MS)
Conditions: mouse, 10 mg/kg
[1] = female, brain (adult), subcutaneous
[2] = female, liver (adult), subcutaneous

O=C1CC[C@@]2(O)[C@H]3Cc4ccc(O)c5c4[C@@]2(CCN3CC2CC2)[C@H]1O5 [Naltrexone, naltrexone, reference compound]
concentration at 20 min [1]: 3230 ng/g | concentration at 45 min [1]: 1470 ng/g | concentration at 2 h [1]: 250 ng/g | concentration at 4 h [1]: 18 ng/g | concentration at 20 min (female, in vivo): 1880 ng/g | concentration at 45 min (female, in vivo): 620 ng/g | concentration at 2 h (female, in vivo): 130 ng/g | concentration at 4 h (female, in vivo): 4 ng/g | concentration at 20 min [2]: 2100 ng/g | concentration at 45 min [2]: 1390 ng/g | concentration at 2 h [2]: 360 ng/g | concentration at 4 h [2]: 32 ng/g | concentration at 45 min (embryo brain, subcutaneous): 2610 ng/g | concentration at 2 h (embryo brain, subcutaneous): 500 ng/g | concentration at 45 min (embryo liver, subcutaneous): 3190 ng/g | concentration at 2 h (embryo liver, subcutaneous): 620 ng/g
